These results are taken from patent publication US12247022B2, “Combinations for treatment of NASH/NAFLD and related diseases” (Pfizer Inc., priority 2018, dated 2025).

What all share (assay type): in vivo, rat
The test system of experiment [1] is Western diet fed Sprague Dawley rats. Briefly: Fed plasma triglyceride (TG), Western diet fed rats, oral dosing. To be noted: 2 hours post dose; for reduction of plasma TG in the fed state, relative to vehicle-administered Western diet fed rats: oral; for increase in plasma TG in the fed state, relative to vehicle-administered Western diet fed rats: oral monotherapy. The procedure:
(§1) A randomized, vehicle-controlled, 8-parallel arm study was conducted in male Sprague-Dawley rats (Charles River (Boston, MA)) to obtain circulating and hepatic TG levels. Standard laboratory conditions were used to house 96 rats (˜200 g); they were double housed and kept under 12:12-hour reverse light-dark schedule (lights off at 8:00 AM). Rats were randomized into chow or Western diet groups and dose groups upon arrival and were given a 14-day lead-in period on either standard rat chow or Western diet prior to the start of the study. Standard Laboratory Rodent chow diet, 5053, was from LabDiet (PMI, St Louis, Missouri). Western Diet, D12079Bi, was from Research Diets (New Brunswick, New Jersey).
For these studies, vehicle was prepared to make a 0.5% (wt/volume) of methyl cellulose (MC, Sigma Aldrich; 274429) in deionized water. The stock solutions with either Compound A (prepared from the tris salt) or Compound D were prepared with the respective compound to provide a concentration such that 10 ml of the solution would deliver the desired mg/kg dosage amount, where the average weight of the rats used was about 200 g.
Starting on Day 1 of the study, rats were dosed orally (10 mL/kg) with either vehicle control (0.5% MC (wt/volume %) in dionized water), low or high doses of Compound A (1 mg/kg or 10 mg/kg QD, respectively), low or high doses of Compound D (5 mg/kg or 30 mg/kg BID respectively), or co-administration of low doses (Compound A at 1 mg/kg QD and Compound D at 5 mg/kg BID), or co-administration of high doses (Compound A at 10 mg/kg QD and Compound D at 30 mg/kg BID)
Fed plasma analytes: Blood for determining fed plasma TG concentrations was collected 2 hours post dose (2 hours into the dark cycle) via lateral tail vein, transferred to BD Microtainer tubes coated with dipotassium ethylenediaminetetraacetic acid (K2EDTA) (PN365974), and centrifuged at 4° C. The resulting plasma samples were then analyzed on a Siemens Chemistry XPT clinical analyzer (Malven, PA) using Siemens triglycerides_2 assay reagents (ref 10335892).

Experiment [2] deals with sterol regulatory element-binding protein 1c (SREBP-1c). Description: Hepatic lipogenic gene expression (qPCR), Western diet fed rats: SREBP-1c. To be noted: Actb housekeeping gene, Day 28 liver. The procedure: as §1
(§2) Starting on Day 1 of the study, rats were dosed orally (10 mL/kg) with either vehicle control (0.5% MC (wt/volume %) in dionized water), low or high doses of Compound A (1 mg/kg or 10 mg/kg QD, respectively), low or high doses of Compound D (5 mg/kg or 30 mg/kg BID respectively), or co-administration of low doses (Compound A at 1 mg/kg QD and Compound D at 5 mg/kg BID), or co-administration of high doses (Compound A at 10 mg/kg QD and Compound D at 30 mg/kg BID) […]
(§3) Another portion of the pulverized liver was processed and analyzed for lipogenic gene expression. Rat taqman probes against ACC1, FASN, SCD1, PCSK9 and SREBP-1c were all assessed using Actb as housekeeping gene on qPCR.

For experiment [3], the system named is proprotein convertase subtilisin/kexin type 9 (PCSK9). Description: Hepatic lipogenic gene expression (qPCR), Western diet fed rats: PCSK9. To be noted: Actb housekeeping gene, Day 28 liver. The procedure: as §1, §2, §3

As for `CCOc1cccnc1Oc1cncc(-c2ncc(C(=O)N[C@H]3CCOC3)cn2)c1` [Compound D, (S)-2-(5-((3-ethoxypyridin-2-yl)oxy)pyridin-3-yl)-N-(tetrahydrofuran-3-yl)pyrimidine-5-carboxamide], the “reduction of plasma TG in the fed state, relative to vehicle-administered Western diet fed rats” value is 63% in experiment [1] (high dose (Compound D 30 mg/kg BID; co-administration: Compound A 10 mg/kg QD and Compound D 30 mg/kg BID)); 55% in experiment [1] (low dose (Compound D 5 mg/kg BID; co-administration: Compound A 1 mg/kg QD and Compound D 5 mg/kg BID)). In experiment [2], the “hepatic SREBP1 gene expression relative to Western Diet fed and vehicle treated animals” value is “decreased expression”. Further, in experiment [3], the “hepatic PCSK9 gene expression relative to Western Diet fed and vehicle treated animals” value is given as “decreased expression”.

For the compound `COc1cc(C(=O)N2CCC3(CC2)CC(=O)c2c(cnn2C(C)C)C3)cc(-c2ccc(C(=O)O)cc2)n1` [Compound A, 4-(4-(1-isopropyl-7-oxo-1,4,6,7-tetrahydrospiro[indazole-5,4′-piperidine]-1′-carbonyl)-6-methoxypyridin-2-yl)benzoic acid], the “increase in plasma TG in the fed state, relative to vehicle-administered Western diet fed rats” value was found to be 1.3 fold in experiment [1] (high dose (Compound A 10 mg/kg QD)) and 1.7 fold in experiment [1] (low dose (Compound A 1 mg/kg QD)).
